Measurements published in patent US12329753B2, “Phosphodiesterase inhibitor treatment” (Cyrano Therapeutics, Inc., priority 2008, dated 2025).
Marks after values point to notes of the source that are not given here.

Experiments:
[1] = test system: patients with hyposmia; assay: Hedonic (H) value of odors, -100-0-+100 scale, open trial of oral theophylline; assay type: in vivo, human
Procedure: In addition, each patient graded the hedonic (H) value of each odor presented for these same odor concentrations (from 10^−2M—an absolute odor concentration using a −100-0-+100 scale). […] Results were obtained by calculating the arithmetical sum of each correct recognition response for each odor with respect to its pleasantness, unpleasantness or neutrality. Arithmetic M±SEM were obtained for each treatment group for each odor presented.
After determination of hyposmia, patients were treated in an open label, fixed design, controlled open trial. Patients were given an oral extended release theophylline in divided daily doses taken in the middle of breakfast and lunch. All patients were initially given 200 mg of theophylline; changes in this dose were made based upon subjective responses to therapy. If at a subsequent return visit, patients reported ≥5% subjective improvement in overall smell function, they continued on this same dose of theophylline and were reevaluated after four to six months of continued treatment. Results from any subsequent return from these improved patients were not included in any subsequent data report. All subsequent comparisons between treated and untreated patients were made only between those patients continuing in the study compared to their own measurements obtained in the untreated state. If patients reported <5% subjective improvement, their theophylline dose was increased by 200 mg daily and they were scheduled for retesting at the study site after two to four months at this new dosage. For patients that reported <5% improvement, this sequence continued until patients reached 800 mg of theophylline, at which time the study was considered completed.
Patients returned for reevaluation after two to four months of treatment. Measurements of blood serum theophylline were measured by a fluorescence polarization assay (Abbott, Chicago, IL). At this time, subjective changes in smell function were measured independently (compared to patient's memory of previous normal smell function monitored by use of the patients' daily measurements) using the scale from −100-0-+100 previously described (vs). After independently recording their subjective responses, smell function was measured for all four odors with DT, RT, ME and H determined without recourse to prior measurements.

[2] = test system: Hyposmic patients; assay: Open label trial of inhalable PDE inhibitor in hyposmic patients (Examples 3, 4); assay type: in vivo, human; conditions: nasal administration, not more than 500 μg
Procedure: Hyposmic patients for whom the etiology of smell loss is not associated with head injury or allergic rhinitis are enrolled in an open label trial of inhalable theophylline. Patients are started at an initial dose of not more than 500 μg formulated as a liquid spray or dry powder to be delivered as a metered dose. Initially only local patients are enrolled so that quicker dose titration is achieved. Groups of 5 patients are started on not more than 500 μg of theophylline and continued for 1 month.
Patients are tested for improvement in smell acuity using the standard forced choice technique using four odors as described in Example 1. Additionally, subjective measurements of smell function are obtained using a scale from 0-100 as described in Example 1. Blood samples are also drawn to ascertain blood theophylline level to gauge its relationship to the expected recovery of smell.
Hyposmic patients for whom the etiology of smell loss is not associated with head injury or allergic rhinitis are enrolled in an open label trial of an inhalable PDE1 inhibitor. […]

[3] = test system: total PDE activity; conditions: human lung extracts; therapeutic concentrations; cited from earlier work
[4] = oral 400 mg daily, 2-6 months, all patients (120), mean ± SEM
[5] = oral 600 mg daily, 2-12 months, all patients (160), mean ± SEM
[6] = oral 800 mg daily, 2-12 months, all patients (28), mean ± SEM
[7] = oral 800 mg, Type I hyposmia (12), mean ± SEM

Cn1c(=O)c2[nH]cnc2n(C)c1=O [theophylline]
increase in H, amyl acetate ([1]; oral 200 mg): 2%
increase in H, nitrobenzene ([1]; oral 200 mg): 2%
increase of H value, amyl acetate ([1]; oral 200 mg, not statistically significant): 50%
change in H (more pleasant), amyl acetate ([1]; oral 400 mg): 1%
change in H (more pleasant), nitrobenzene ([1]; oral 400 mg): 4%
change in H, pyridine ([1]; oral 400 mg): 9%
change in H, thiophene ([1]; oral 400 mg): 7%
decrease of H value, thiophene ([1]; oral 400 mg): 40%
hedonic estimation (H), amyl acetate [1, 4]: 3 ± 2^ %
hedonic estimation (H), nitrobenzene [1, 4]: 8 ± 3^a %
hedonic estimation (H), pyridine [1, 4]: −26 ± 3^b %
hedonic estimation (H), thiophene [1, 4]: −19 ± 2^d %
increase of H value, nitrobenzene ([1]; oral 400 mg, not statistically significant): 50%
hedonic estimation (H), amyl acetate [1, 5]: 4 ± 1%
hedonic estimation (H), nitrobenzene [1, 5]: 8 ± 2^d %
hedonic estimation (H), pyridine [1, 5]: −19 ± 2 ^ %
hedonic estimation (H), thiophene [1, 5]: −14 ± 2 ^ %
decrease of H value, pyridine ([1]; oral 800 mg): 55%
decrease of H value, thiophene ([1]; oral 800 mg): 37%
increase of H value, amyl acetate ([1]; oral 800 mg): about 50%
increase of H value, nitrobenzene ([1]; oral 800 mg): about 50%
hedonic estimation (H), amyl acetate [1, 6]: 8 ± 5%
hedonic estimation (H), nitrobenzene [1, 6]: 13 ± 7 ^ %
hedonic estimation (H), pyridine [1, 6]: −22 ± 6%
hedonic estimation (H), thiophene [1, 6]: −15 ± 4%
hedonic value (row printed R), amyl acetate [1, 7]: −1 ± 4 ^ %
hedonic value (row printed R), nitrobenzene [1, 7]: 2 ± 2^a %
hedonic value (row printed R), pyridine [1, 7]: −11 ± 5^a %
hedonic value (row printed R), thiophene [1, 7]: −4 ± 2^a %
recovery of smell acuity versus oral administration [2]: at least an equivalent recovery of smell acuity
inhibition of total PDE activity [3]: 5 to 10%
